According to paper PMC8849072, “Sudapyridine (WX-081), a Novel Compound against Mycobacterium tuberculosis” (Microbiology Spectrum, 2022):
Converted amounts (≈) assume the structure as drawn.

Legend:
[1] = tested on: M. tuberculosis clinical strain 14282; assay: MIC by microplate alamarBlue assay (MABA); assay type: cell-based, Mycobacterium tuberculosis; conditions: strain 14282: resistant to INH SM RFP EMB RBT 1321 OFX LFX; for MIC: Mycobacterium tuberculosis
[2] = tested on: M. tuberculosis clinical strain 16030; assay: MIC by microplate alamarBlue assay (MABA); assay type: cell-based, Mycobacterium tuberculosis; conditions: strain 16030: resistant to INH RFP RFT; for MIC: Mycobacterium tuberculosis
[3] = tested on: M. tuberculosis clinical strain 13946; assay: MIC by microplate alamarBlue assay (MABA); assay type: cell-based, Mycobacterium tuberculosis; conditions: strain 13946: resistant to INH SM RFP EMB RBT PAS OFX; for MIC: Mycobacterium tuberculosis
[4] = tested on: M. tuberculosis clinical strain 16825; assay: MIC by microplate alamarBlue assay (MABA); assay type: cell-based, Mycobacterium tuberculosis; conditions: strain 16825: resistant to INH RFP AK RFT; for MIC: Mycobacterium tuberculosis
[5] = tested on: M. tuberculosis clinical strain 14158; assay: MIC by microplate alamarBlue assay (MABA); assay type: cell-based, Mycobacterium tuberculosis; conditions: strain 14158: resistant to INH SM RFP EMB AK 1321 PAS OFX; for MIC: Mycobacterium tuberculosis
[6] = tested on: M. tuberculosis clinical strain 14092; assay: MIC by microplate alamarBlue assay (MABA); assay type: cell-based, Mycobacterium tuberculosis; conditions: strain 14092: resistant to INH SM RFP; for MIC: Mycobacterium tuberculosis
[7] = tested on: M. tuberculosis clinical strain 14619; assay: MIC by microplate alamarBlue assay (MABA); assay type: cell-based, Mycobacterium tuberculosis; conditions: strain 14619: resistant to INH RFP KM CPM AK 1321 PAS; for MIC: Mycobacterium tuberculosis
[8] = tested on: M. tuberculosis clinical strain 15321; assay: MIC by microplate alamarBlue assay (MABA); assay type: cell-based, Mycobacterium tuberculosis; conditions: strain 15321: resistant to INH RFP EMB AK ETO OFX RFT; for MIC: Mycobacterium tuberculosis
[9] = tested on: M. tuberculosis clinical strain 13908; assay: MIC by microplate alamarBlue assay (MABA); assay type: cell-based, Mycobacterium tuberculosis; conditions: strain 13908: resistant to INH RFP EMB 1321 PAS OFX LFX; for MIC: Mycobacterium tuberculosis
[10] = tested on: M. tuberculosis clinical strain 14441; assay: MIC by microplate alamarBlue assay (MABA); assay type: cell-based, Mycobacterium tuberculosis; conditions: strain 14441: resistant to INH RFP RBT AK CPM 1321 OFX LFX; for MIC: Mycobacterium tuberculosis
[11] = tested on: M. tuberculosis clinical strain 14862; assay: MIC by microplate alamarBlue assay (MABA); assay type: cell-based, Mycobacterium tuberculosis; conditions: strain 14862: resistant to INH SM RFP EMB 1321 CPM PAS; for MIC: Mycobacterium tuberculosis
[12] = tested on: M. tuberculosis clinical strain 14550; assay: MIC by microplate alamarBlue assay (MABA); assay type: cell-based, Mycobacterium tuberculosis; conditions: strain 14550: resistant to INH SM RFP EMB KM CPM AK 1321 PAS; for MIC: Mycobacterium tuberculosis
[13] = tested on: M. tuberculosis clinical strain 15833; assay: MIC by microplate alamarBlue assay (MABA); assay type: cell-based, Mycobacterium tuberculosis; conditions: strain 15833: resistant to INH RFP RFT; for MIC: Mycobacterium tuberculosis
[14] = tested on: M. tuberculosis clinical strain 14470; assay: MIC by microplate alamarBlue assay (MABA); assay type: cell-based, Mycobacterium tuberculosis; conditions: strain 14470: resistant to INH SM RFP EMB KM RBT AK CPM 1321 PAS; for MIC: Mycobacterium tuberculosis
[15] = tested on: M. tuberculosis clinical strain 14822; assay: MIC by microplate alamarBlue assay (MABA); assay type: cell-based, Mycobacterium tuberculosis; conditions: strain 14822: resistant to INH SM RFP EMB KM RBT AK 1321 PAS; for MIC: Mycobacterium tuberculosis
[16] = tested on: M. tuberculosis clinical strain 15321; assay: MBC determination (CFU-based); conditions: strain 15321: resistant to INH RFP EMB AK ETO OFLX RFT; 7 days incubation, 3 log10 CFU decrease
[17] = tested on: M. tuberculosis clinical strain 15833; assay: MBC determination (CFU-based); conditions: strain 15833: resistant to INH RFP RFT; 7 days incubation, 3 log10 CFU decrease
[18] = tested on: M. tuberculosis clinical strain 14619; assay: MBC determination (CFU-based); conditions: strain 14619: resistant to INH RFP KM CPM AK 1321 PAS; 7 days incubation, 3 log10 CFU decrease
[19] = tested on: M. tuberculosis clinical strain 14441; assay: MBC determination (CFU-based); conditions: strain 14441: resistant to INH RFP RBT AK CPM 1321 OFLX LVFX; 7 days incubation, 3 log10 CFU decrease

Compound	MIC [1] [µg/mL]	MIC [2] [µg/mL]	MIC [3] [µg/mL]	MIC [4] [µg/mL]	MIC [5] [µg/mL]	MIC [6] [µg/mL]	MIC [7] [µg/mL]	MIC [8] [µg/mL]	MIC [9] [µg/mL]	MIC [10] [µg/mL]	MIC [11] [µg/mL]	MIC [12] [µg/mL]	MIC [13] [µg/mL]	MIC [14] [µg/mL]	MIC [15] [µg/mL]	MBCs [16] [µg/mL]	MBCs [17] [µg/mL]	MBCs [18] [µg/mL]	MBCs [19] [µg/mL]	further results
CO[C@H]1/C=C/O[C@@]2(C)Oc3c(C)c(O)c4c(O)c(c(/C=N/N5CCN(C)CC5)c(O)c4c3C2=O)NC(=O)/C(C)=C\C=C\[C@H](C)[C@H](O)[C@@H](C)[C@@H](O)[C@@H](C)[C@H](OC(C)=O)[C@@H]1C [RFP, rifampicin]	> 40	> 40	> 40	> 40	> 40	> 40	> 40	> 40	6.9 (≈ 8.39 µM)	> 40	15.2 (≈ 18.5 µM)	> 40	> 40	> 40	> 40					
COc1ncc(-c2ccc(Cl)cc2)cc1[C@@H](c1ccccc1)[C@@](O)(CCN(C)C)c1cccc2ccccc12 [WX-081, sudapyridine]	0.113 (≈ 0.21 µM)	0.057 (≈ 0.106 µM)	0.098 (≈ 0.182 µM)	0.226 (≈ 0.421 µM)	0.111 (≈ 0.207 µM)	0.235 (≈ 0.438 µM)	0.3 (≈ 0.559 µM)	0.109 (≈ 0.203 µM)	0.849 (≈ 1.58 µM)	0.465 (≈ 0.866 µM)	0.026 (≈ 0.0484 µM)	0.17 (≈ 0.317 µM)	0.236 (≈ 0.439 µM)	0.966 (≈ 1.8 µM)	0.48 (≈ 0.894 µM)	>1.25	>1.25	0.313	>5	
NC[C@H]1O[C@H](O[C@H]2[C@H](O)[C@@H](O[C@H]3O[C@H](CO)[C@@H](O)[C@H](N)[C@H]3O)[C@H](N)C[C@@H]2N)[C@H](O)[C@@H](O)[C@@H]1O [KM, kanamycin]																				MICs [1]: 1.199 µg/mL; MICs [2]: 1.072 µg/mL; MICs [3]: 0.788 µg/mL; MICs [4]: >40 µg/mL; MICs [5]: >40 µg/mL; MICs [6]: 1.199 µg/mL; MICs [7]: 1.195 µg/mL; MICs [8]: >40 µg/mL; MICs [9]: 1.151 µg/mL; MICs [10]: >40 µg/mL; MICs [11]: 1.243 µg/mL; MICs [12]: 1.186 µg/mL; MICs [13]: 2.302 µg/mL; MICs [14]: 0.437 µg/mL; MICs [15]: >40 µg/mL
NNC(=O)c1ccncc1 [INH, isoniazid]	2.35 (≈ 17.1 µM)	2.45 (≈ 17.9 µM)	1.81 (≈ 13.2 µM)	2.37 (≈ 17.3 µM)	> 40	2.41 (≈ 17.5 µM)	4.38 (≈ 31.9 µM)	1.04 (≈ 7.56 µM)	3.01 (≈ 21.9 µM)	> 40	2.17 (≈ 15.8 µM)	2.25 (≈ 16.4 µM)	4.5 (≈ 32.8 µM)	> 40	> 40					
COc1nc2ccc(Br)cc2cc1[C@@H](c1ccccc1)[C@@](O)(CCN(C)C)c1cccc2ccccc12 [BDQ, bedaquiline]	0.053 (≈ 0.0954 µM)	0.017 (≈ 0.0306 µM)	0.021 (≈ 0.0378 µM)	0.06 (≈ 0.108 µM)	0.03 (≈ 0.054 µM)	0.048 (≈ 0.0864 µM)	0.052 (≈ 0.0936 µM)	0.028 (≈ 0.0504 µM)	0.266 (≈ 0.479 µM)	0.214 (≈ 0.385 µM)	0.006 (≈ 0.0108 µM)	0.051 (≈ 0.0918 µM)	0.09 (≈ 0.162 µM)	0.468 (≈ 0.842 µM)	0.111 (≈ 0.2 µM)	>0.313	>0.32	0.156	>2.5	
